Data from patent US8865684B2, “Morpholin-4-ium 4 methoxyphenyl (morpholino) phosphinodithioate (GYY4137) as a novel vasodilator agent” (National University of Singapore, priority 2009, dated 2014).

Experiments:
[1] = test system: phenylephrine-precontracted rat aorta; experiment: tissue or blood
[2] = GYY4137 133 μmol/kg IV or IP; NaHS 20 μmol/kg IV; up to 180 minutes
Description: Blood (0.5 mL) was withdrawn at timed intervals, anticoagulated with heparin (50 U/mL), and centrifuged (2000 g, 20 minutes). […] The zinc acetate assay measures free H2S plus related species including HS^− (hydrosulfide anion) and S2^− (sulfide). Accordingly, results for plasma H2S reported herein indicate the sum total of these species. All experiments on intact animals were undertaken with the approval of the local National University of Singapore Institutional Animal Care and Use Committee.

[3] = H2S release in vitro, DTNB assay; type: physicochemical; conditions: phosphate buffer
anesthetized rat = experiment: Blood pressure in the anesthetized rat; type: in vivo
[4] = test system: isolated perfused rat kidney; experiment: Isolated perfused rat kidney, perfusion pressure
Description: (§1) For experiments using perfused kidney or heart, Sprague-Dawley rats (male; weight, 230 to 270 g) were anesthetized as described above. […] In kidneys, dose-response curves (volumes <10 μL) were obtained for bolus-injected noradrenaline, angiotensin II, or U46619.

[5] = test system: Langendorff-perfused rat heart; experiment: Langendorff-perfused rat heart; conditions: at 30 minutes
Description: as §1

[6] = test system: rat aortic vascular smooth muscle cells (A10); experiment: cAMP and cGMP in cultured vascular smooth muscle cells (ELISA); type: cell-based; conditions: 100 μmol/L, 45 minutes, isobutyl methylxanthine 300 μmol/L; control 11.3±1.4; n=6
Source text: Normal rat aortic vascular smooth muscle cells (A10) were obtained from the American Type Culture Collection (ATCC, Manassas, Va.).

Which “time course: response to a standard concentration of phenylephrine after drug” value [1] does the source give for S [NaHS, sodium hydrosulfide] here?
The value was “did not reduce”.

And the “vasorelaxant effect after removal of the endothelium or exposure to L-NAME or ODQ” value [1]?
The value was “reduced”.

And the “vasorelaxant effect in presence of KATP channel blockers (glibenclamide or PNU37883A)” value [1]?
Its value is “reduced”.

And the EC50 ([1]; Rattus norvegicus, phenylephrine-precontracted, read-out: EC50, relaxation of aortic rings)?
Its EC50 is 274 ± 22.2 µM.

What about the Emax ([1]; Rattus norvegicus, phenylephrine-precontracted, read-out: Emax, relaxation of aortic rings) of the same molecule?
The Emax was 63.4 ± 3.3%.

And the “approximate EC70” value ([1]; concentration used for time course experiments)?
Its value is about 300 µM.

And the “plasma H2S (H2S, HS−, S2−) concentration” value [2]?
Its value is “did not elevate”.

What about the “H2S release in the DTNB assay” value [3] of the same molecule?
Its value is “instantaneous”.

What about the “effect on blood pressure” value (anesthetized rat; NaHS 2.5 to 20 μmol/kg IV, GYY4137 26.6 to 133 μmol/kg IV) of the same molecule?
The value was “immediate, transient (10 to 30 seconds), and dose-related falls”.

And the “transient fall in perfusion pressure” value ([4]; bolus 10 nmol, n=10)?
The value was 10.2±2.8 mm Hg.

What about the “fall in perfusion pressure (biphasic response)” value ([4]; bolus 5 μmol, n=8) of the same molecule?
Its value is 11.6±4.5 mm Hg.

And the “rise in perfusion pressure (biphasic response)” value ([4]; bolus 5 μmol, n=8)?
Its value is 22.7±6.7 mm Hg.

What about the “reduction of cardiac contractility (left ventricular diastolic pressure)” value ([5]; 100 μmol/L) of the same molecule?
Its value is 42.0±7.8%.

And the “reduction of heart rate” value ([5]; NaHS 100 μmol/L)?
The value was 53.2±6.6%.

With C1CCC(N=C(NC23CC4CC(CC(C4)C2)C3)N2CCOCC2)CC1.Cl [PNU37883A] as the molecule, how does the “blood pressure after PNU37883A” value (anesthetized rat; 15 minutes after PNU37883A 26.2 μmol/kg IP, versus 105.6±3.5 before injection, n=5, P=0.053) read?
The value was 117.2±3.7 mm Hg.

For C=C[C@@]1(C)CC(=O)[C@]2(O)[C@@]3(C)[C@@H](O)CCC(C)(C)[C@@H]3[C@H](O)[C@H](OC(C)=O)[C@@]2(C)O1 [forskolin], which cAMP concentration [6] is on record?
The cAMP concentration was 79.6 ± 1.6 nmol/L.
